Here are results for two compounds from patent publication US11414379B2, “SPAK kinase inhibitors as neuroprotective agents” (United States Government as represented by the Department …, priority 2018, dated 2022).

For one assay, the system named is AMPK (hum). In words: Kinase panel (Dundee profiling). Format: biochemical, human. On the procedure:
The kinase selectivity of ZT-1a was further assessed using standard radioisotopic enzymatic assays against a panel of 140 recombinant kinases (Dundee profiling, Table 2) (Bain et al. (2007) The Biochemical journal 408, 297-315). ZT-1a at a concentration of 10 μM inhibited only MAPKAP-K2 activity 85±7% compared to DMSO control, representing high kinase selectivity.
Referring to Table 2, ZT-1a was tested at 10 and 1 μM against a panel of 140 recombinant kinases in an enzymatic activity-based assay performed by the International Centre for Kinase Profiling in the MRC Protein Phosphorylation and Ubiquitylation Unit. Values represent % residual kinase activity (mean+/−SEM, n=3). Kinases labelled with an asterick* are inhibited ≥50% by ZT-1a.

Another assay concerns KCC2 pThr1007. Put plainly: Phosphorylation immunoblot in KCC2-transfected HEK293 cells. It is filed as cell-based, human. As to conditions: concentration inhibiting phosphorylation. On the procedure: (§1) HEK293 (human embryonic kidney 293) cells were cultured on 10-cm-diameter dishes in DMEM supplemented with 10% (v/v) foetal bovine serum, 2 mM L-glutamine, 100 U/ml penicillin and 0.1 mg/ml streptomycin. HEK293 cells were transfected with a mixture of 20 μl of 1 mg/ml polyethylenimine (Polysciences) and 5-10 μg of plasmid DNA as described previously (Durocher et al., 2002). 36 hours post-transfection cells were stimulated with either control isotonic or hypotonic medium for a period of 30 minutes. Cells were lysed in 0.3 mL of ice-cold lysis buffer/dish, lysates were clarified by centrifugation at 4° C. for 15 minutes at 26,000 g and the supernatant aliquots were frozen in liquid nitrogen and stored at −20° C. Protein concentrations were determined using the Bradford method. Cells were treated with the indicated concentrations of the SPAK/OSR1 inhibitors. […] Hypotonic low chloride buffer was 67.5 mM sodium-gluconate, 2.5 mM potassium-gluconate, 0.25 mM CaCl2), 0.25 mM MgCl2, 0.5 mM Na2HPO4, 0.5 mM Na2SO4 and 7.5 mM HEPES (pH 7.5).
(§2) The membranes were incubated for 30 min with TBST (Tris-buffered saline, 0.05% Tween-20) containing 5% (w/v) skim milk. The blots were then washed six times with TBST and incubated for 1 hour at room temperature with secondary HRP-conjugated antibodies diluted 5000-fold in 5% (w/v) skim milk in TBST. After repeating the washing steps, signals were detected with enhanced chemiluminescence reagent. Immunoblots were developed using a film automatic processor (SRX-101; Konica Minolta Medical) and films were scanned at 600 dpi (PowerLook 1000; UMAX). Figures were generated using Photoshop/Illustrator (Adobe). The densities of bands were measured with ImageJ. For phospho-antibody immunoprecipitation, KCC isoforms were immunoprecipitated from indicated cell extracts. 2 mg of the indicated clarified cell extract were mixed with 15 μg of the indicated phospho-specific KCC antibody conjugated to 15 μl of protein-G-Sepharose, in the added presence of […] of the dephosphorylated form of the phosphopeptide antigen, and incubated 2 hours at 4° C. with gentle shaking. Immunoprecipitates were washed three times with 1 mL of lysis buffer containing 0.15 M NaCl and twice with 1 ml of buffer A. Bound proteins were eluted with 1×LDS sample buffer.
(§3) HEK293 cells were transfected with a DNA construct encoding wild type N-terminally FLAG-tagged KCC2. 36 hrs post-transfection, cells were exposed 30 min to either control isotonic or hypotonic low [C1^−] conditions, then treated in the same conditions for an additional 30 min with the indicated inhibitors at the concentrations noted. Cell lysates were subjected to SDS-PAGE and Western blotting with the indicated antibodies. See FIG. 3 for Western blot quantitation.
(§4) Referring to FIG. 2, concentration-response experiments testing effects of Closantel analogs on phosphorylation of KCC2 Thr906/Thr1007 are shown. HEK293 cells were transfected with DNA construct encoding wild type N-terminally FLAG-tagged KCC2. 36 h post-transfection, cells were exposed 30 min to either control isotonic conditions or hypotonic low Cl^− conditions, then treated in the same conditions with the specified inhibitors (1b, 1c, 1f, 1d, 1h, and 1g, respectively) at the indicated concentrations for an additional 30 min. Lysates were subjected to SDS-PAGE and Western blotting with the indicated antibodies.
(§5) Referring to FIG. 3, HEK293 cells were transfected with the DNA construct encoding wild type N-terminally FLAG-tagged KCC2. 36 h post-transfection, cells were exposed 30 min to either control isotonic or hypotonic low Cl^− conditions, then treated in the same conditions with the specified inhibitors at the indicated concen-trations for an additional 30 min. Lysates were subjected to SDS-PAGE and Western blotting with the indicated antibodies. Closantel, STOCK1S-14279 and STOCK1S-50699 were used as reference compounds.

In another assay the test system is KCC2 pThr906. The assay is described as above. Format: cell-based, human. As to conditions: concentration inhibiting phosphorylation. On the procedure: as §1, §2, §3, §4, §5
The next assay deals with SPAK pSer373. The description is as above. As to conditions: concentration inhibiting phosphorylation. It is filed as cell-based, human. How it is done:
as §1, §2, §3, §4, §5

A further assay concerns pSPAK. Put plainly: IVH-induced phosphorylation in rat choroid plexus, ICV delivery. It is filed as in vivo. The note with it: 48 hrs post-IVH, n=3.
In assay [1] the test system is KCCs sites-1/2 (KCC2 Thr906/1007 or KCC3 Thr991/1048) phosphorylation. In words: Phosphorylation immunoblot in HEK293 cells. Format: cell-based, human. As to conditions: only at this concentration. On the procedure:
HEK293 (human embryonic kidney 293) cells were cultured on 10-cm-diameter dishes in DMEM supplemented with 10% (v/v) foetal bovine serum, 2 mM L-glutamine, 100 U/ml penicillin and 0.1 mg/ml streptomycin. HEK293 cells were transfected with a mixture of 20 μl of 1 mg/ml polyethylenimine (Polysciences) and 5-10 μg of plasmid DNA as described previously (Durocher et al., 2002). 36 hours post-transfection cells were stimulated with either control isotonic or hypotonic medium for a period of 30 minutes. Cells were lysed in 0.3 mL of ice-cold lysis buffer/dish, lysates were clarified by centrifugation at 4° C. for 15 minutes at 26,000 g and the supernatant aliquots were frozen in liquid nitrogen and stored at −20° C. Protein concentrations were determined using the Bradford method. Cells were treated with the indicated concentrations of the SPAK/OSR1 inhibitors. […]
The membranes were incubated for 30 min with TBST (Tris-buffered saline, 0.05% Tween-20) containing 5% (w/v) skim milk. […] After repeating the washing steps, signals were detected with enhanced chemiluminescence reagent. […] The densities of bands were measured with ImageJ. […]
HEK293 cells were transfected with a DNA construct encoding wild type N-terminally FLAG-tagged KCC2. […] See FIG. 3 for Western blot quantitation. […]

The structures appear in SMILES notation.

Turning to `Cc1cc(C(C#N)c2ccc(Cl)cc2)c(Cl)cc1NC(=O)c1cc(Cl)ccc1O` (stereo not shown) [ZT-1a, 5-chloro-N-(5-chloro-4-((4-chlorophenyl)(cyano)methyl)-2-methylphenyl)-2-hydroxy-benzamide], the “% residual kinase activity” value in the assay with AMPK (hum) (1 μM) was determined as 126 ± 4%; in the assay with AMPK (hum) (10 μM) it was 108 ± 4%. Moreover, the “KCC2 pThr1007 (μM) hypo” value in the assay on KCC2 pThr1007 (hypotonic low Cl- conditions) stood at 3 μM. Moreover, in the assay on KCC2 pThr1007 (isotonic conditions), the “KCC2 pThr1007 (μM) Iso” value was 1 μM. For the same compound, in the assay on KCC2 pThr906 (hypotonic low Cl- conditions), the “KCC2 pThr906 (μM) hypo” value is given as 3, 3 μM. Moreover, the “KCC2 pThr906 (μM) Iso” value with KCC2 pThr906 (isotonic conditions) is recorded as 3, 3 μM. The “SPAK pSer373 (μM) hypo” value in the assay on SPAK pSer373 (hypotonic low Cl- conditions) is given as 3 μM. Further, in the assay on SPAK pSer373 (isotonic conditions), the “SPAK pSer373 (μM) Iso” value is reported as 1 μM. In addition, the “reduction of IVH-induced expression of pSPAK” value in the assay with pSPAK is 55±3.6%.
On to `Cc1cc(C(C#N)c2ccc(Cl)cc2)c(Cl)cc1NC(=O)c1cc(I)cc(I)c1O` (stereo not shown) [Closantel], for which the “concentration at which phosphorylation of KCCs site-1 was significantly inhibited” value in assay [1] is 10 µM.
